target: T1, PDE10A2 (Homo sapiens, UniProt Q9Y233); assay: PDE10A2 inhibition, Scintillation Proximity Assay (SPA); type: biochemical; details: catalytic domain of human PDE10A2 (S449-D789), 0.25 nM enzyme, 50 nM cGMP and 50 nM [3H]-cGMP, 30 minutes at room temperature
T1 construct: residues serine 449 to aspartate 789; His6 (H6) with Gateway linker and thrombin cleavage site (N, cleaved yes); made in house; host or cells: E. coli BL21(DE3) pLysS
Method: The following tests were carried out in order to determine the activity of the compounds of the present invention. PDE10 activity of the compounds of the present invention is determined using a Scintillation Proximity Assay (SPA)-based method similar to the one previously described (Fawcett, L. et al., Proc Natl Acad Sci USA (2000) 97(7):3702-3707). PDE10A1 and PDE10A2 are two splice variants of PDE10A. There are these 2 splice variants known, which differ in the N-terminal part of the protein. The catalytic domains of PDE10A1 and PDE10A2 are identical. The assay for PDE10A2 described below is therefore also representative for PDE10A1 and also for PDE10A in general. The PDE10A2 assay was performed in a two step procedure in 96-well micro titer plates. […] A range of concentrations of the potential inhibitor was used to generate data for calculating the concentration of inhibitor resulting in 50% of the effect (e.g. IC50, the concentration of the competitor inhibiting PDE10A2 activity 50%). Non-specific activity was tested without the enzyme. The reaction was initiated by addition of the substrate solution (cGMP and [^3H]-cGMP) and allowed to progress for 30 minutes at room temperature. The reaction was terminated by transferring 50 μl of the reaction mixture into an OptiPlate (Perkin Elmer) containing 25 μl of YSi-SPA scintillation beads (GE Healthcare) in 18 mM zinc sulphate solution (stop reagent). After 1 h under shaking, the plate was centrifuged one minute at 1000 rpm to allow beads to settle. Afterwards, radioactive counts were measured on a Perkin Elmer TopCount Scintillation plate reader. The catalytic domain of human PDE10[…], was amplified by PCR using cDNA (Origene) and the oligonucleotides 5'-[…]00001:character} […] no. 1) (with AttB1 recombination site in bold and thrombin protease cleavage site in […] no. 2) (with AttB2 recombination site in bold) which conferred Gateway recombination sites. The PCR product was used in a BP recombination reaction with pDONR221 to generate […]([…]-[…]) which was DNA sequence verified and then used in an LR recombination reaction with a Gateway modified version of pET11a. […] About 30% of the protein was in the soluble fraction of the cell homogenate. The protein was purified using sequential chromatography on Ni-NTA and […]. After thrombin digest at room temperature a […]/HiTrap Benzamindin chromatography removed impurities, uncleaved protein and thrombin. Final purification of PDE10A2([…]-[…]) was performed on a Superdex 75 size exclusion chromatography equilibrated with 25 mM HEPES pH 8.4, 0.15 M NaCl. The yield of pure protein was 2 mg/liter of culture volume is relatively low. The purity of the protein was >95%, monomeric and monodisperse as shown by SDS-PAGE, HPLC and analytical ultracentrifugation.

T1 sequence (Q9Y233 715-1055): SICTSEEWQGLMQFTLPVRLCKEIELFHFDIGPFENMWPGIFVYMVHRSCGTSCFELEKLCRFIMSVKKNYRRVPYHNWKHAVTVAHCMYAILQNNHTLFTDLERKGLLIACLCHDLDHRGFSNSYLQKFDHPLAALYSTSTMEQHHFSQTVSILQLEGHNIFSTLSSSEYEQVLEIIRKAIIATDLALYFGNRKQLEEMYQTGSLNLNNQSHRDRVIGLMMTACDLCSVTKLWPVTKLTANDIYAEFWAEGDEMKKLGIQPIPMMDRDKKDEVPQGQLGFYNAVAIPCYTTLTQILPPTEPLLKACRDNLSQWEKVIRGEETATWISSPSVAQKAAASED

IC50 | SMILES
3.3 nM | Cn1ncc(C(=O)N2CCOCC2CO)c1C(=O)Nc1ccn2cc(-c3ccccc3)nc2c1 (stereo not drawn) [Example 53, 4-(3-Hydroxymethyl-morpholine-4-carbonyl)-2-methyl-2H-pyrazole-3-carboxylic acid (2-phenyl-imidazo[1,2-a]pyridin-7-yl)-amide]
4.3 nM | Cn1ncc(C(=O)Nc2ccncc2)c1C(=O)Nc1ccn2cc(-c3ccccc3)nc2c1 [Example 55, 2-Methyl-2H-pyrazole-3,4-dicarboxylic acid 3-[(2-phenyl-imidazo[1,2-a]pyridin-7-yl)-amide]-4-pyridin-4-ylamide]
0.6 nM | CN(C)C1CCN(C(=O)c2cnn(C)c2C(=O)Nc2ccn3cc(-c4ccccc4)nc3c2)C1 (stereo not drawn) [Example 59, 4-(3-Dimethylamino-pyrrolidine-1-carbonyl)-2-methyl-2H-pyrazole-3-carboxylic acid (2-phenyl-imidazo[1,2-a]pyridin-7-yl)-amide]
12.6 nM | CCn1ncc(C(=O)N2CCC2)c1C(=O)Nc1ccn2cc(-c3ccccc3)nc2c1 [Example 62, 4-(Azetidine-1-carbonyl)-2-ethyl-2H-pyrazole-3-carboxylic acid (2-phenyl-imidazo[1,2-a]pyridin-7-yl)-amide]
41.8 nM | CNC(=O)c1cn[nH]c1C(=O)Nc1ccn2cc(-c3ccccc3)nc2c1 [Example 65, 2H-Pyrazole-3,4-dicarboxylic acid 4-methylamide 3-[(2-phenyl-imidazo[1,2-a]pyridin-7-yl)-amide]]
2 nM | Cn1ncc(C(=O)NC(CO)CO)c1C(=O)Nc1ccn2cc(-c3ccccc3)nc2c1 [Example 66, 2-Methyl-2H-pyrazole-3,4-dicarboxylic acid 4-[(2-hydroxy-1-hydroxymethyl-ethyl)-amide]3-[(2-phenyl-imidazo[1,2-a]pyridin-7-yl)-amide]]
0.1 nM | Cn1ncc(C(=O)N2CCC2)c1C(=O)Nc1cc2nc(-c3ccccc3)cn2cc1Br [Example 67, 4-(Azetidine-1-carbonyl)-2-methyl-2H-pyrazole-3-carboxylic acid (6-bromo-2-phenyl-imidazo[1,2-a]pyridin-7-yl)-amide]
1 nM | Cn1ncc(C(=O)N2CCOCC2)c1C(=O)Nc1cc2nc(-c3ccccc3)cn2cc1C#N [Example 69, 2-Methyl-4-(morpholine-4-carbonyl)-2H-pyrazole-3-carboxylic acid (6-cyano-2-phenyl-imidazo[1,2-a]pyridin-7-yl)-amide]
0.3 nM | Cn1ncc(C(=O)N2CCC2)c1C(=O)Nc1cc2nc(-c3ccccc3)cn2cc1Cl [Example 70, 4-(Azetidine-1-carbonyl)-2-methyl-2H-pyrazole-3-carboxylic acid (6-chloro-2-phenyl-imidazo[1,2-a]pyridin-7-yl)-amide]
0.8 nM | Cn1ncc(C(=O)N2CCOCC2)c1C(=O)Nc1cc2nc(-c3ccccc3)cn2cc1Cl [Example 72, 2-Methyl-4-(morpholine-4-carbonyl)-2H-pyrazole-3-carboxylic acid (6-chloro-2-phenyl-imidazo[1,2-a]pyridin-7-yl)-amide]
0.7 nM | Cn1ncc(C(=O)N2CCC2)c1C(=O)Nc1cc2nc(-c3ccccc3)cn2cc1C1CC1 [Example 74, 4-(Azetidine-1-carbonyl)-2-methyl-2H-pyrazole-3-carboxylic acid (6-cyclopropyl-2-phenyl-imidazo[1,2-a]pyridin-7-yl)-amide]
1 nM | Cn1ncc(C(=O)N2CCOCC2)c1C(=O)Nc1cc2nc(-c3ccccc3)cn2cc1C1CC1 [Example 75, 2-Methyl-4-(morpholine-4-carbonyl)-2H-pyrazole-3-carboxylic acid (6-cyclopropyl-2-phenyl-imidazo[1,2-a]pyridin-7-yl)-amide]
7 nM | Cn1ncc(Cl)c1C(=O)Nc1cc2nc(-c3ccccc3)cn2cn1 [Example 80, 4-Chloro-2-methyl-2H-pyrazole-3-carboxylic acid (2-phenyl-imidazo[1,2-c]pyrimidin-7-yl)-amide]
0.1 nM | CN(C)C(=O)c1cnn(C)c1C(=O)Nc1cc2nc(-c3ccccc3)cn2cn1 [Example 82, 2-Methyl-2H-pyrazole-3,4-dicarboxylic acid 4-dimethylamide 3-[(2-phenyl-imidazo[1,2-c]pyrimidin-7-yl)-amide]]
2.7 nM | CNC(=O)c1cnn(C)c1C(=O)Nc1cc2nc(-c3ccccc3)cn2cn1 [Example 84, 2-Methyl-2H-pyrazole-3,4-dicarboxylic acid 4-methylamide 3-[(2-phenyl-imidazo[1,2-c]pyrimidin-7-yl)-amide]]
0.6 nM | COCCCNC(=O)c1cnn(C)c1C(=O)Nc1cc2nc(-c3ccccc3)cn2cn1 [Example 85, 2-Methyl-2H-pyrazole-3,4-dicarboxylic acid 4-[(3-methoxy-propyl)-amide]3-[(2-phenyl-imidazo[1,2-c]pyrimidin-7-yl)-amide]]
0.3 nM | Cn1ncc(C(=O)N2CCC2)c1C(=O)Nc1cc2nc(-c3ccccc3)cn2cn1 [Example 86, 4-(Azetidine-1-carbonyl)-2-methyl-2H-pyrazole-3-carboxylic acid (2-phenyl-imidazo[1,2-c]pyrimidin-7-yl)-amide]
0.1 nM | Cn1ncc(C(=O)N2CCOCC2)c1C(=O)Nc1cc2nc(-c3ccccc3)cn2cn1 [Example 89, 2-Methyl-4-(morpholine-4-carbonyl)-2H-pyrazole-3-carboxylic acid (2-phenyl-imidazo[1,2-c]pyrimidin-7-yl)-amide]

Source: patent US8263584B2, “Imidazopyridines” (Hoffmann-La Roche Inc., priority 2009, dated 2012)
